For experiment [1], the target named is Sigma intracellular receptor 2 (Homo sapiens, UniProt Q5BJF2). As to the kind of experiment: Displacement of [3H]-DTG from sigma2 receptor (unknown origin) incubated for 120 mins by scintillation counting method. On the technique in general: In a radioligand displacement assay an active substance lowers the binding of a labelled ligand.
Experiment [2] has as its target Sigma non-opioid intracellular receptor 1 (Cavia porcellus, UniProt Q60492). Description: Displacement of [3H]-(+)-pentazocine from sigma1 receptor in guinea pig brain membranes incubated for 150 mins by scintillation counting method. In kind it is cell membranes.
The test system of experiment [3] is MCF7. As to the kind of experiment: Induction of apoptosis in human MCF7 cells assessed as increase in caspase-3 activity at 20 uM incubated for 24 hrs by Ac-DEVD-pNA substrate-based colorimetric assay. In kind it is functional, cell-based.
In experiment [4] the test system is MCF7. As to the kind of experiment: Cytotoxicity against human MCF7 cells assessed as reduction in cell viability incubated for 24 hrs by MTT assay. In kind it is functional, cell-based. Conditions: MCF7, 24 h. For orientation: Formazan colour is commonly taken as a measure of viable cells.
In experiment [5] the test system is Mus musculus. Description: Analgesic activity in formalin-induced nociception mouse model assessed as decrease in time spent on licking or flinching formalin injected right hind paw during early nociceptive phase at 2.5 to 5 mg/kg, ip administered 15 mins prior to formalin challenge measured at 5 mins interval for 10 mins. In kind it is functional, organism-based.

The test system of experiment [6] is Mus musculus. As to the kind of experiment: Analgesic activity in formalin-induced nociception mouse model assessed as decrease in time spent on licking or flinching formalin injected right hind paw during inflammatory phase at 2.5 to 5 mg/kg, ip administered 15 mins prior to formalin challenge measured at 5 mins interval for 10 to 60 mins. In kind it is functional, organism-based.

Experiment [7] in a line: Selectivity ratio of Ki for sigma2 receptor (unknown origin) to Ki for sigma1 receptor in guinea pig brain cortex membranes. It is filed as cell membranes.

The source made the active and inactive calls. The calls are words filed in the database; no cut-off is given here.

What is called Ki is the equilibrium dissociation constant of an inhibitor or competing ligand from its target. A high value points to weaker binding. One may read the IC50 as the concentration needed to halve the response being measured.

Sequence of Sigma non-opioid intracellular receptor 1 (Q60492 whole entry): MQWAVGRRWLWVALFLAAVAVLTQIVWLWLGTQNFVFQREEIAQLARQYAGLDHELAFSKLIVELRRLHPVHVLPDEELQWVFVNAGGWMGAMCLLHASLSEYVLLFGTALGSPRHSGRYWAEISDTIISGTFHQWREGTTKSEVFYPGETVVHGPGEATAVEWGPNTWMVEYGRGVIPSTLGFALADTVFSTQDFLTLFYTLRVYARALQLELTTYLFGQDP
Sequence of Sigma intracellular receptor 2 (Q5BJF2 whole entry): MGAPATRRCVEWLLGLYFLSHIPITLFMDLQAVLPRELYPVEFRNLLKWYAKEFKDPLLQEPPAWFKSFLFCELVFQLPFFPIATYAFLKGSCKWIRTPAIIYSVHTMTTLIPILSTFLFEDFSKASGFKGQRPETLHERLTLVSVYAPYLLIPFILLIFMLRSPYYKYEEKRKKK

As to `O=c1sc2ccc(Cl)cc2n1CCCCN1CCCCCC1`, the Ki in experiment [1] amounted to 7.61 nM; in experiment [2], 0.78 nM. The result in experiment [3] and in experiment [6] was Active. Further, the IC50 in experiment [4] stood at 27800 nM. Moreover, in experiment [5], the result was inactive. Further, the Ratio Ki in experiment [7] was determined as 9.7.
For `Clc1ccc2oc(SCCN3CCCCCC3)nc2c1`, the Ki in experiment [1] was found to be 87 nM; in experiment [2], 1.93 nM. In addition, the Ratio Ki in experiment [7] came to 45.
For `CC[C@H]1C[C@@H]2C[C@H]3c4[nH]c5ccc(OC)cc5c4CC[N@@](C2)[C@@H]13`, the outcome in experiment [3] was Active. Moreover, the IC50 in experiment [4] was determined as 29600 nM.
Consider `O=c1oc2ccc(Cl)cc2n1CCN1CCCCCC1`, for which the Ki in experiment [1] is 652 nM; in experiment [2] it was 99 nM. Also, the Ratio Ki in experiment [7] is 6.6.
The matching figures for `Clc1ccc2oc(SCCCN3CCCCCC3)nc2c1`: 16 nM, 2.35 nM and 6.2.
In the case of `O=C(CCCN1CCC(O)(c2ccc(Cl)cc2)CC1)c1ccc(F)cc1` [HALOPERIDOL], the result in experiment [3] was Active. In addition, the IC50 in experiment [4] was found to be 20200 nM.
With `O=c1oc2ccc(Cl)cc2n1CCCCN1CCCCCC1`, the Ki came to 3.8 nM in experiment [1] and 2.3 nM in experiment [2]. Further, the outcome in experiment [3], in experiment [5] and in experiment [6] was Active. Besides, the IC50 in experiment [4] amounted to 44800 nM. Besides, the Ratio Ki in experiment [7] came to 1.6.
As for `Clc1ccc2oc(SCCCCN3CCCCCC3)nc2c1`, the results for the Ki in experiment [1] and in experiment [2] were 11 nM and 2.4 nM, respectively. The Ratio Ki in experiment [7] was determined as 4.6.
The corresponding values for `Clc1ccc2sc(SCCCCN3CCCCCC3)nc2c1` are 21.8 nM, 8.44 nM and 2.6.
The matching figures for `O=c1oc2ccc(Cl)cc2n1CCCN1CCCCCC1`: 64.1 nM, 6.3 nM and 10.2.
The corresponding values for `O=c1sc2ccc(Cl)cc2n1CCN1CCCCCC1` are 1670 nM, 180 nM and 9.3.
In the case of `O=c1sc2ccc(Cl)cc2n1CCCN1CCCCCC1`, the Ki stood at 68.8 nM in experiment [1] and 7.4 nM in experiment [2]. In experiment [7], the Ratio Ki amounted to 9.3.
The matching figures for `Clc1ccc2sc(SCCN3CCCCCC3)nc2c1`: greater than 1000 nM, 407 nM and greater than 2.4.
As to `Clc1ccc2sc(SCCCN3CCCCCC3)nc2c1`, the Ki is 7.9 nM in experiment [1] and 1.27 nM in experiment [2]. Besides, the outcome in experiment [3] was Active. Moreover, the IC50 in experiment [4] was found to be 20500 nM. Further, the outcome in experiment [5] and in experiment [6] was inactive. In addition, the Ratio Ki in experiment [7] worked out at 6.8.
